The record followed here is ChEMBL document CHEMBL1201862, “PubChem BioAssay data set” (2004).

Structures are written as SMILES.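 Step 1: Grow cells in 96-well plates. Step 2: Expose to compound for 48 hours at 5 concentrations. Step 3: Interpolate endpoints linearly; if unreached, use highest concentration. GI50 is the concentration that inhibits growth by half.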 Activity calls are given as the source filed them. No stated cut-off is given here; in the data, active = GI50 up to about 1.1 µM and inactive = higher. Bounds are passed on as bounds.

Holding throughout (assay): inhibition of tumour cell growth, NCI panel, 48 h
The test system of experiment [1] is Hs-578T.
In experiment [2] the test system is UO-31.
For experiment [3], the system named is ACHN.
In experiment [4] the test system is UACC-257.
The subject of experiment [5] is CAKI-1.
Experiment [6] relates to 786-0.
In experiment [7] the test system is RPMI-8226.
In experiment [8] the test system is BT-549.
The test system of experiment [9] is A498.
For experiment [10], the system named is HCT-116.
Experiment [11] relates to OVCAR-8.
Experiment [12] has as its system PC-3.
Experiment [13] has as its system OVCAR-5.
The test system of experiment [14] is OVCAR-3.
The subject of experiment [15] is SF-295.
Experiment [16] relates to RXF 393.
Experiment [17] relates to Malme-3M.
Experiment [18] has as its system NCI-H226.
Experiment [19] deals with DU-145.
Experiment [20] has as its system SF-539.

For the compound `CC(=O)OCC1OC(n2c(N)c(C#N)c(-c3ccccc3)c(C#N)c2=S)C(OC(C)=O)C(OC(C)=O)C1OC(C)=O` (stereo not given), the GI50 in [1] was 14.6 µM (inactive); in experiment [2], 45 µM (inactive); in experiment [3] it was > 85.7 µM (inactive); in experiment [4], > 100 µM (inactive); in [5] it was 44.3 µM (inactive); in experiment [6] it was 21.8 µM (inactive). Also, the GI50 in [7] was > 100 µM (inactive); in experiment [8] it was 42.6 µM (inactive); in experiment [9], > 64.4 µM (inactive); in experiment [10], > 100 µM (inactive); in experiment [11], 34.9 µM (inactive); in experiment [12], > 100 µM (inactive). The GI50 is > 100 µM (inactive) in [13]; > 100 µM (inactive) in [14]; 30.8 µM (inactive) in experiment [15]; 23.2 µM (inactive) in [16]; > 100 µM (inactive) in experiment [17]; > 61.4 µM (inactive) in experiment [18]. The GI50 in experiment [19] is > 100 µM (inactive); in experiment [20] it was > 46.9 µM (inactive).
Turning to `COc1ccc2c(c1)-c1nn(CCN(C)C)c3ccc(C(=O)NCCCN(C)CCCNC(=O)c4ccc5c6c(c7cc(OC)ccc7nc46)NN5CCN(C)C)c(c13)N2`, the GI50 in experiment [1] was 0.201 µM (active); in experiment [2], 0.183 µM (active); in [3], 0.0607 µM (active); in experiment [4], 0.0702 µM (active); in experiment [5] it was 0.346 µM (active); in experiment [6], 0.0313 µM (active). Further, the GI50 was 0.0105 µM (active) in [7]; 0.138 µM (active) in [8]; 0.0859 µM (active) in experiment [9]; < 0.01 µM (active) in experiment [10]; 0.0133 µM (active) in experiment [11]; 0.0208 µM (active) in [12]. Further, the GI50 in experiment [13] is 0.126 µM (active); in experiment [14] it was 0.0933 µM (active); in [15] it was 0.0671 µM (active); in experiment [16] it was 0.0366 µM (active); in experiment [17], 0.106 µM (active); in [18], 0.155 µM (active). For the same compound, the GI50 in experiment [19] is 0.0284 µM (active); in [20], < 0.01 µM (active).
For the compound `COc1cc2c(cc1Cc1c(F)cccc1Cl)nc(-c1c(F)cccc1Cl)n2Cc1c(F)cccc1Cl`, the GI50 in experiment [1] is 21.3 µM (inactive); in [2], 48.4 µM (inactive); in [3] it was 31.8 µM (inactive); in experiment [4] it was 22.5 µM (inactive); in experiment [5], 6.07 µM (inactive); in experiment [6], 24.4 µM (inactive). Besides, the GI50 is 13.7 µM (inactive) in [7]; 28.8 µM (inactive) in experiment [8]; 27.3 µM (inactive) in experiment [9]; 20 µM (inactive) in [10]; 36.3 µM (inactive) in experiment [11]; 10.7 µM (inactive) in experiment [12]. Further, the GI50 in [13] is 48.8 µM (inactive); in experiment [14], 11.6 µM (inactive); in [15], 14 µM (inactive); in experiment [16], 77.3 µM (inactive); in [17], 20 µM (inactive); in [18] it was 34 µM (inactive). Further, the GI50 in [19] is 28.1 µM (inactive); in experiment [20] it was 21 µM (inactive).
With `CCOC(=O)NN(C(=O)OCC)C(C(=O)c1ccccc1)N(NC(=O)OCC)C(=O)OCC`, the GI50 in [1], in [2], in experiment [3], in experiment [4], in experiment [5] and in [6] was > 100 µM (inactive) in each case. Also, the GI50 in experiment [7], in experiment [8], in experiment [9], in experiment [10], in experiment [11] and in experiment [12] was > 100 µM (inactive) in each case. Further, the GI50 in experiment [13], in experiment [14], in experiment [15], in experiment [16], in experiment [17] and in [18] was > 100 µM (inactive) each time. Besides, the GI50 in experiment [19] and in experiment [20] was > 100 µM (inactive) throughout.
Consider `COc1ccc2c(c1)nc1n2C(N)=Nc2ccccc2S1`, for which the GI50 in experiment [1] is 61 µM (inactive); in experiment [2], 26.4 µM (inactive); in [3], 29.6 µM (inactive); in experiment [4] it was 32.5 µM (inactive); in experiment [5] it was > 100 µM (inactive); in experiment [6] it was 9.68 µM (inactive). The GI50 in [7] was 8.73 µM (inactive); in experiment [8], 48.2 µM (inactive); in experiment [9], 37.1 µM (inactive); in experiment [10] it was 5.3 µM (inactive); in experiment [11] it was 18.4 µM (inactive); in [12], 16.5 µM (inactive). Also, the GI50 in experiment [13] is 36.6 µM (inactive); in experiment [14], 5.55 µM (inactive); in experiment [15], 44.2 µM (inactive); in [16], 30 µM (inactive); in [17], 62.2 µM (inactive); in experiment [18] it was 11.6 µM (inactive). The GI50 was 35.5 µM (inactive) in [19] and 33.4 µM (inactive) in [20].
Turning to `Cc1ccc(-n2cnc3c(N/N=C4\SCC(=O)N4c4ccccc4)ncnc32)cc1`, the GI50 in [1] was 3.85 µM (inactive); in experiment [2] it was 1.15 µM (inactive); in experiment [3] it was 5.78 µM (inactive); in experiment [4], 3.87 µM (inactive); in experiment [5], 6.01 µM (inactive); in [6] it was 3.15 µM (inactive). For the same compound, the GI50 in experiment [7] is 0.597 µM (active); in experiment [8] it was 3.85 µM (inactive); in [9], 14.2 µM (inactive); in experiment [10] it was 2.63 µM (inactive); in experiment [11], 3.27 µM (inactive); in experiment [12], 3.3 µM (inactive). In addition, the GI50 in experiment [13] is 12.2 µM (inactive); in experiment [14], 3.13 µM (inactive); in experiment [15], 13.3 µM (inactive); in experiment [16], 2.33 µM (inactive); in experiment [17], 4.39 µM (inactive); in experiment [18], 4.02 µM (inactive). Also, the GI50 was 4.37 µM (inactive) in experiment [19] and 1.87 µM (inactive) in [20].
Consider `O=C(CCc1ccc(O)cc1)NCCCNC(=O)CCc1ccc(O)cc1`, for which the GI50 in [1], in experiment [2], in [3], in [4], in [5] and in experiment [6] was > 100 µM (inactive) in each case. Moreover, the GI50 in experiment [7], in experiment [8], in experiment [9], in [10], in [11] and in [12] was > 100 µM (inactive) in each case. In addition, the GI50 in experiment [13], in experiment [14], in experiment [15], in experiment [16], in experiment [17] and in experiment [18] was > 100 µM (inactive) in each case. Moreover, the GI50 in experiment [19] and in experiment [20] was > 100 µM (inactive) each time.
As for `CN(C)c1nc(N)c(C#N)c(C#N)c1C#N`, the GI50 in [1] is > 10 µM (inactive); in experiment [2] it was > 10 µM (inactive); in experiment [3] it was > 10 µM (inactive); in experiment [4], > 10 µM (inactive); in [5], > 10 µM (inactive); in experiment [6] it was > 7.16 µM (inactive). Further, the GI50 is > 8.79 µM (inactive) in [7]; > 10 µM (inactive) in experiment [8]; > 10 µM (inactive) in experiment [9]; > 10 µM (inactive) in experiment [10]; > 10 µM (inactive) in [11]; > 10 µM (inactive) in experiment [12]. Also, the GI50 in experiment [13], in experiment [14], in experiment [15], in experiment [16], in experiment [17] and in experiment [18] was > 10 µM (inactive) throughout. The GI50 in [19] and in experiment [20] was > 10 µM (inactive) throughout.
As for `CS(=O)(=O)OCCCCOS(C)(=O)=O` [BUSULFAN], the GI50 in experiment [1] is > 250 µM (inactive); in [2], 244 µM (inactive); in [3], 172 µM (inactive); in [4], 183 µM (inactive); in experiment [5] it was 161 µM (inactive); in experiment [6] it was 228 µM (inactive). Further, the GI50 in [7] is 237 µM (inactive); in [8], > 1000 µM (inactive); in experiment [9], 233 µM (inactive); in experiment [10], 238 µM (inactive); in experiment [11], 237 µM (inactive); in [12], 235 µM (inactive). The GI50 in experiment [13] is > 250 µM (inactive); in experiment [14] it was > 250 µM (inactive); in [15], 210 µM (inactive); in experiment [16] it was 182 µM (inactive); in experiment [17], 242 µM (inactive); in [18] it was 237 µM (inactive). Also, the GI50 in [19] was 220 µM (inactive); in experiment [20], 233 µM (inactive).
Regarding `COc1cc2c(cc1O)Cc1c-2[n+](C)cc2cc(OC)c(OC)cc12`, the GI50 in experiment [1] was 60 µM (inactive); in [2], 8.53 µM (inactive); in [3], 1.5 µM (inactive); in experiment [4], > 68.9 µM (inactive); in [5], 25.8 µM (inactive); in [6] it was 2.87 µM (inactive). The GI50 in experiment [7] is 9.14 µM (inactive); in experiment [8], 8.11 µM (inactive); in experiment [9], > 64.1 µM (inactive); in experiment [10] it was 15.3 µM (inactive); in experiment [11] it was 2.72 µM (inactive); in [12] it was 28.8 µM (inactive). In addition, the GI50 in [13] is > 100 µM (inactive); in experiment [14], 29.7 µM (inactive); in experiment [15] it was 7.89 µM (inactive); in experiment [16], 22.9 µM (inactive); in [17], > 86.5 µM (inactive); in [18] it was > 59 µM (inactive). Moreover, the values for the GI50 in [19] and in [20] were 4.23 µM (inactive) and 1.82 µM (inactive), respectively.
